Assay results: patent US20190151312A1, “HEPARAN SULFATE BIOSYNTHESIS INHIBITORS FOR THE TREATMENT OF DISEASES” (BioMarin Pharmaceutical Inc., priority 2014, published 2019)

Test system: GM01896 cells (MPS II dermal fibroblasts)
Assay: Assay 1: MPS cellular assay, MPS II (heparan sulfate disaccharide biomarkers by LC-MS)
Type: cell-based, human
Details: Assay 1 for MPS II, heparan sulfate disaccharide biomarkers (I2a4, I2a6, I2S0 and/or I2S6), read-out: IC50 Range
Procedure, shortened: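 Heparan sulfate disaccharide biomarkers quantified by LC-MS after heparinase I/II/III digestion and isotopic aniline labelling, using GM01896 MPS II fibroblasts exposed to compound (at or below 30 μM, 4-21 days). Values given as IC50 by curve fitting; cell viability checked with alamar blue or ATP.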

Structure (SMILES)	IC50 [nM]
Cn1nc(N2CCOCC2)c2ccc(-c3cc(Nc4ccc(Cl)cc4)nc(N4CCOCC4)n3)cc21 [(4-chlorophenyl)[6-(1-methyl-3-morpholin-4-yl(1H-indazol-6-yl))-2-morpholin-4-ylpyrimidin-4-yl]amine]	1000 to 5000
Cn1c(=O)[nH]c2ccc(-c3cc(Nc4ccc(Cl)cc4)nc(N4CCOCC4)n3)cc21 [6-{6-[(4-chlorophenyl)amino]-2-morpholin-4-ylpyrimidin-4-yl}-1-methyl-3-hydrobenzimidazol-2-one]	< 500

Same assay, conditions: Homo sapiens, Fibroblast, Assay 1 for MPS II, heparan sulfate disaccharide biomarkers (I2a4, I2a6, I2S0 and/or I2S6), read-out: IC50 Range

Structure (SMILES)	IC50 [nM]
CNC(=O)c1ccc(Nc2cc(-c3ccc4ncn(C5CC5)c4c3)nc(N3CCOCC3)n2)cn1 [(5-{[6-(1-cyclopropylbenzimidazol-6-yl)-2-morpholin-4-ylpyrimidin-4-yl]amino}(2-pyridyl))-N-methylcarboxamide]	500 to 1000
Cc1c(C)n(C)c2cc(Nc3cc(-c4ccc5c(CCN6CCOCC6)nn(C)c5c4)nc(N4CCOCC4)n3)ccc12 [{6-[1-methyl-3-(2-morpholin-4-ylethyl)(1H-indazol-6-yl)]-2-morpholin-4-ylpyrimidin-4-yl}(1,2,3-trimethylindol-6-yl)amine]	500 to 1000
COCCn1cnc2ccc(-c3cc(Nc4ccc(C(=O)O)cc4)nc(N4CCOCC4)n3)cc21 [4-({6-[1-(2-methoxyethyl)benzimidazol-6-yl]-2-morpholin-4-ylpyrimidin-4-yl}amino)benzoic acid]	1000 to 5000
Clc1ccc(Nc2cc(-c3ccc4c(c3)ncn4CCN3CCCC3)nc(N3CCOCC3)n2)cc1 [(4-chlorophenyl){2-morpholin-4-yl-6-[1-(2-pyrrolidinylethyl)benzimidazol-5-yl]pyrimidin-4-yl}amine]	1000 to 5000
Cn1ncc2ccc(-c3cc(Nc4ccc(-c5[nH]ncc5F)cc4)nc(N4CCOCC4)n3)cc21 [[4-(4-fluoropyrazol-5-yl)phenyl][6-(1-methyl(1H-indazol-6-yl))-2-morpholin-4-ylpyrimidin-4-yl]amine]	1000 to 5000
NC(=O)c1ccc(Nc2cc(-c3ccc4ncn(CCN5CCOCC5)c4c3)nc(N3CCOCC3)n2)cc1 [4-({2-morpholin-4-yl-6-[1-(2-morpholin-4-ylethyl)benzimidazol-6-yl]pyrimidin-4-yl}amino)benzamide]	1000 to 5000
Cn1nc(CCN2CCOCC2)c2ccc(-c3cc(Nc4ccc(-c5cocn5)cc4)nc(N4CCOCC4)n3)cc21 [{6-[1-methyl-3-(2-morpholin-4-ylethyl)(1H-indazol-6-yl)]-2-morpholin-4-ylpyrimidin-4-yl}(4-(1,3-oxazol-4-yl)phenyl)amine]	< 500
CCc1nn(C)c2cc(-c3cc(Nc4ccc(Cl)cc4)nc(N4CCOCC4)n3)ccc12 [(4-chlorophenyl)[6-(3-ethyl-1-methyl(1H-indazol-6-yl))-2-morpholin-4-ylpyrimidin-4-yl]amine]	1000 to 5000
CNC(=O)c1ccc(Nc2cc(-c3ccc4ncn(C5CCC5)c4c3)nc(N3CCOCC3)n2)cc1 [(4-{[6-(1-cyclobutylbenzimidazol-6-yl)-2-morpholin-4-ylpyrimidin-4-yl]amino}phenyl)-N-methylcarboxamide]	< 500
CNC(=O)c1ccc(Nc2cc(-c3ccc4c(c3)ncn4CCN(C)C)nc(N3CCOCC3)n2)cc1 [{4-[(6-{1-[2-(dimethylamino)ethyl]benzimidazol-5-yl}-2-morpholin-4-ylpyrimidin-4-yl)amino]phenyl}-N-methylcarboxamide]	1000 to 5000
CNC(=O)c1ccc(Nc2cc(-c3ccc4ncn(C)c4c3)nc(N3CCOCC3)n2)cn1 [N-methyl(5-{[6-(1-methylbenzimidazol-6-yl)-2-morpholin-4-ylpyrimidin-4-yl]amino}(2-pyridyl))carboxamide]	500 to 1000
Cn1ncc2ccc(-c3cc(Nc4ccc(C5=NCCO5)cc4)nc(N4CCOCC4)n3)cc21 [[6-(1-methyl(1H-indazol-6-yl))-2-morpholin-4-ylpyrimidin-4-yl](4-(1,3-oxazolin-2-yl)phenyl)amine]	1000 to 5000
Cc1nn(C)c2cc(-c3cc(Nc4ccc(-c5ccn(C)c5)cc4)nc(N4CCOCC4)n3)ccc12 [[6-(1,3-dimethyl(1H-indazol-6-yl))-2-morpholin-4-ylpyrimidin-4-yl][4-(1-methylpyrrol-3-yl)phenyl]amine]	1000 to 5000
Cn1nc(NCCN2CCOCC2)c2ccc(-c3cc(Nc4ccc(Cl)cc4)nc(N4CCOCC4)n3)cc21 [(4-chlorophenyl)(6-{1-methyl-3-[(2-morpholin-4-ylethyl)amino](1H-indazol-6-yl)}-2-morpholin-4-ylpyrimidin-4-yl)amine]	500 to 1000
Cc1nn(C)c2cc(-c3cc(Nc4ccc(-c5nnc[nH]5)cc4)nc(N4CCOCC4)n3)ccc12 [(4-(4H-1,2,4-triazol-3-yl)phenyl)[6-(1,3-dimethyl(1H-indazol-6-yl))-2-morpholin-4-ylpyrimidin-4-yl]amine]	< 500
Cc1nc2cc(-c3cc(Nc4ccc(Cl)cc4)nc(N4CCOCC4)n3)ccc2n1C1COC1 [(4-chlorophenyl)[6-(2-methyl-1-oxetan-3-ylbenzimidazol-5-yl)-2-morpholin-4-ylpyrimidin-4-yl]amine]	< 500
CNC(=O)c1ccc(Nc2cc(-c3ccc4c(c3)ncn4C3CC3)nc(N3CCOCC3)n2)cc1 [(4-{[6-(1-cyclopropylbenzimidazol-5-yl)-2-morpholin-4-ylpyrimidin-4-yl]amino}phenyl)-N-methylcarboxamide]	500 to 1000
Cn1ncc2ccc(-c3cc(Nc4ccc(-c5nnc(C6CC6)[nH]5)cc4)nc(N4CCOCC4)n3)cc21 [[4-(5-cyclopropyl(4H-1,2,4-triazol-3-yl))phenyl][6-(1-methyl(1H-indazol-6-yl))-2-morpholin-4-ylpyrimidin-4-yl]amine]	< 500
Cn1nc(CCN2CCOCC2)c2ccc(-c3cc(Nc4ccc(C#N)cc4)nc(N4CCOCC4)n3)cc21 [4-({6-[1-methyl-3-(2-morpholin-4-ylethyl)(1H-indazol-6-yl)]-2-morpholin-4-ylpyrimidin-4-yl}amino)benzenecarbonitrile]	1000 to 5000
Cc1nn(C)c2cc(-c3cc(Nc4ccc(Cl)cc4)nc(N4CCOCC4)n3)ccc12 [[6-(1,3-dimethyl(1H-indazol-6-yl))-2-morpholin-4-ylpyrimidin-4-yl](4-chlorophenyl)amine]	500 to 1000
CC(=O)Nc1ccc(Nc2cc(-c3ccc4cnn(C)c4c3)nc(N3CCOCC3)n2)cc1 [N-(4-{[6-(1-methyl(1H-indazol-6-yl))-2-morpholin-4-ylpyrimidin-4-yl]amino}phenyl)acetamide]	500 to 1000
Cn1ccc2cc(Nc3cc(-c4ccc5cnn(C)c5c4)nc(N4CCOCC4)n3)ccc21 [[6-(1-methyl(1H-indazol-6-yl))-2-morpholin-4-ylpyrimidin-4-yl](1-methylindol-5-yl)amine]	1000 to 5000
CNC(=O)c1ccc(Nc2cc(-c3ccc4cnn(C5CC5)c4c3)nc(N3CCOCC3)n2)cc1 [(4-{[6-(1-cyclopropyl(1H-indazol-6-yl))-2-morpholin-4-ylpyrimidin-4-yl]amino}phenyl)-N-methylcarboxamide]	< 500
Cc1cc2ccc(Nc3cc(-c4ccc5c(CCN6CCOCC6)nn(C)c5c4)nc(N4CCOCC4)n3)cc2n1C [(1,2-dimethylindol-6-yl){6-[1-methyl-3-(2-morpholin-4-ylethyl)(1H-indazol-6-yl)]-2-morpholin-4-ylpyrimidin-4-yl}amine]	500 to 1000
